The source of these data is publication PMC8779255, “Determining the Anticancer Activity of Sphingosine Kinase Inhibitors Containing Heteroatoms in Their Tail Structure” (Pharmaceutics, 2022).

In series [1] the test system is HT29 cells. Nature of the series: MTT cell viability assay. The class given is cell-based, human. The method, then:
(§1) The HT29 and HCT116 cells (human colon cancer), AGS (human gastric cancer), and MIA PaCa-2 cells (human pancreatic cancer) were purchased from Korean Cell Line Bank (Seoul, Korea). Cancer cells were maintained in RPMI (HT29 and AGS) and DMEM (HCT116 and MIA PaCa-2) culture media supplemented with 10% fetal bovine serum (FBS) and 100 U/mL penicillin and streptomycin at 37 °C in a 95% humidified incubator containing 5% CO2. The cytotoxic effect of the compounds was assessed using the MTT cell viability assay. Briefly, 3 × 10^3 cells/well were grown in 96-well plates for 24 h. After treatment with desired concentration of respective compounds for 24 h or 48 h, the EZ-CYTOTOX (10 µM) reagent was added in each well and incubated for 90 min. The absorbance was measured at 450 nm wavelength using Skanlt software 5.0 (Thermo Scientific, Waltham, MA, USA) installed on a Multiskan GO (Thermo Scientific, Waltham, MA, USA) spectrophotometer. Each experiment was independently repeated three times (n = 12).

The test system of the next series is HCT116 cells. Nature of the series: MTT cell viability assay. Type of series: cell-based, human. How it is done:
as §1
For orientation: Tetrazolium dyes change colour on reduction, which living cells bring about.

In the next series the target is T1, SK1 enzyme (Homo sapiens, UniProt Q9NYA1).
T1 construct: purchased Thermo Fisher Scientific
T1 sequence (Q9NYA1 whole entry): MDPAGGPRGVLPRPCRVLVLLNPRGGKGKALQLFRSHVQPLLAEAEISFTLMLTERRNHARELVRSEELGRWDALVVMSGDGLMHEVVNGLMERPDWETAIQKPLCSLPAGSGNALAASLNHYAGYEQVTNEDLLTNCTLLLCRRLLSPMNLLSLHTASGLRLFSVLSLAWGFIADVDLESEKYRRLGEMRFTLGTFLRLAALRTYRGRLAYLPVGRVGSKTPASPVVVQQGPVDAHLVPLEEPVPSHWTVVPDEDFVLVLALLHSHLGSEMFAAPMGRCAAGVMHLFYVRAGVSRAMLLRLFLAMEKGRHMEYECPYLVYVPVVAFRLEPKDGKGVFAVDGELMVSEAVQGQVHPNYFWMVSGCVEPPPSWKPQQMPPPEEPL
Description: SK activity assay (Adapta screening system). Type of series: biochemical. The note with it: 20 μM, Figure 5A. The method, then:
(§2) The effect of compounds in sphingosine kinase activity was examined using the […] screening system (Thermo Fisher Scientific System, Waltham, MA, USA). The kinase inhibition ability of compounds 1-11 along with RB005 was measured with final concentration of 20 μM. […] The data were presented as percentage inhibition of SK enzyme by individual compounds.

The next series concerns the target T2, SK2 enzyme (Homo sapiens, UniProt Q9NRA0).
T2 construct: purchased Thermo Fisher Scientific
Description: SK activity assay (Adapta screening system). The class given is biochemical. The following applies: 20 μM, Figure 5A. The method, then:
as §2

For a further series, the system named is S1PR4. Also on record: method as in PMID 27297359. The note with it: in Figure 1, no unit; cited from earlier work.
Another series deals with S1PR5. Details: method as in PMID 27297359. The note with it: in Figure 1, no unit; cited from earlier work.
A further series concerns S1PR1. Also on record: method as in PMID 27297359. The note with it: in Figure 1, no unit; cited from earlier work.
The next series relates to S1PR3. Also on record: method as in PMID 27297359. The following applies: in Figure 1, no unit; cited from earlier work.
The subject of another series is S1PR2. Details: method as in PMID 27297359. The following applies: in Figure 1, no unit; cited from earlier work.
Another series has as its target T3, PP2A in HCT116 cells (Homo sapiens, UniProt P67775).
T3 construct: endogenous in cells; host or cells: HCT116
Description: PP2A activity assay (immunoprecipitation kit). The class given is cell-based. The following applies: HCT116, 24 h, 20 µM of compounds 10, 11 and 13; vs nontreated control cells. The method, then: The activity of PP2A was measured by using the PP2A kit according to the manufacturer’s instruction. The cell lysate was incubated with anti PP2A, C subunit antibody, and protein A agarose slurry for 2 h at 4 °C. The phosphopeptide solution (60 µL) was mixed and incubated at 30 °C for 10 min in a shaker. After a brief centrifuge, a 25 µL sample was liquated in ½ volume microplate and 100 µL malachite green phosphate detection working solution was added. After color development, absorbance was taken at 650 nm in a Multiskan GO microplate reader. A phosphate standard curve was constructed using phosphate standard, and results were calculated using this standard curve. This experiment was repeated three times (n = 6).

Another series has as its target CYP2C9 (Homo sapiens, UniProt P11712). Description: Inhibition of CYP enzymes activity, human liver microsomes. The note with it: human liver microsomes 0.25 mg/mL, 10 μM, diclofenac substrate. On the technique in general: Liver microsomes are a subcellular fraction often used to study metabolism.
A short description of series [2]: In vitro metabolic stability in liver microsomes.
Description: Microsome incubation was measured in triplicate in a 1.5 mL Eppendorf tube with 0.1 M potassium phosphate buffer (pH 7.4). […] It has a final volume of 100 mL in the presence of an NADPH regeneration system. In the final incubation mixture, 0.5 mg/mL HLM, 0.1 M potassium phosphate buffer (pH 7.4), and NADPH regeneration system (1 mM NADPH, 10 mM MgCl2) were included. In the pre-incubation mixture, HLM was added, and the mixture was run in a shaking incubator at approximately 350 rpm and 37 °C for 5 min under a Thermomixer (Eppendorf, Hamburg, Germany). Reactions were initiated by the addition of 1 mM NADPH and then quenched by the addition of 40 μL of ice-cold acetonitrile containing 10 μM chlorpropamide (CPP) as an internal standard at 0 and 30 min. After quenching, centrifugation of the incubation mixture was performed at 15,000× g for 5 min at 4 °C. An aliquot of 2 µL of the supernatant was injected into the LC-MS/MS system. The LC-MS/MS system was Xcalibur version 1.1.1 (Thermo Fisher Scientific Inc., Waltham, MA, USA).
Series [3] deals with HT29 cells. Description: Annexin V-FITC/PI staining, flow cytometry. The class given is cell-based, human. The following applies: HT29, 10 and/or 20 µM, 24 h. How it is done: After treating HT29 and HCT116 cells with compounds 10, 11, 13 and FTY720 according to the manufacturer’s instruction, the annexin V and PI staining technique was employed to determine apoptosis in the cells. Briefly, cells (2.5 × 10^5 cells/well) were seeded in 12-well plates and treated with 10 and/or 20 µM of compounds for 24 h. Cells were collected using trypsin-EDTA and stained with annexin V-FITC dye for 15 min at room temperature, followed by PI staining for 20 min and analyzed by flow cytometer (MACSQuant Analyzer 10; Miltenyi Biotec, Bergisch Gladbach, Germany). The data was analyzed using MACSQuantify^TM version 2.8 software (Miltenyi Biotec, Bergisch Gladbach, Germany) and presented as early apoptosis, late apoptosis, or combined apoptosis percentage. Each experiment was repeated three times independently (n = 6).

Another series concerns the target CYP2C19 (Homo sapiens, UniProt P33261). Description: Inhibition of CYP enzymes activity, human liver microsomes. The note with it: human liver microsomes 0.25 mg/mL, 10 μM, S-mephenytoin substrate.
For another series, the system named is SK1. The note with it: known compounds, Figure 1; cited from earlier work.
The target in a further series is T4, CYP1A2 (Homo sapiens, UniProt P05177).
T4 sequence (P05177 1-516): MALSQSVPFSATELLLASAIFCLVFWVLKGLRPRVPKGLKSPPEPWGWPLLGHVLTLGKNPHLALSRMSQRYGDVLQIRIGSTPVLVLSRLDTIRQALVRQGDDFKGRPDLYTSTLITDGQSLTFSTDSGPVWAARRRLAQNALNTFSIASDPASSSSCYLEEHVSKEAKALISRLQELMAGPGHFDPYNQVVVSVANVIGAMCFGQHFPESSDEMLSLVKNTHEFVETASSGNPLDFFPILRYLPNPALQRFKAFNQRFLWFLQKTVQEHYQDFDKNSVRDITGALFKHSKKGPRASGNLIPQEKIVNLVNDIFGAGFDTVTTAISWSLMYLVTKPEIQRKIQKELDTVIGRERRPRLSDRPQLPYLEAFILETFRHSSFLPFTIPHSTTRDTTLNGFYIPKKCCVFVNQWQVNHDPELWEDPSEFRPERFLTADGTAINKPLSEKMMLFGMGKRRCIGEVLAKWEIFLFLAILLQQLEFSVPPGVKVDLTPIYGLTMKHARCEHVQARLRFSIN
Description: Inhibition of CYP enzymes activity, human liver microsomes. The following applies: human liver microsomes 0.25 mg/mL, 10 μM, phenacetin substrate.

The target in another series is CYP2D6 (Homo sapiens, UniProt P10635). The series is described as above. The note with it: human liver microsomes 0.25 mg/mL, 10 μM, dextromethorphan substrate.
Sequence of CYP2D6 (P10635 whole entry): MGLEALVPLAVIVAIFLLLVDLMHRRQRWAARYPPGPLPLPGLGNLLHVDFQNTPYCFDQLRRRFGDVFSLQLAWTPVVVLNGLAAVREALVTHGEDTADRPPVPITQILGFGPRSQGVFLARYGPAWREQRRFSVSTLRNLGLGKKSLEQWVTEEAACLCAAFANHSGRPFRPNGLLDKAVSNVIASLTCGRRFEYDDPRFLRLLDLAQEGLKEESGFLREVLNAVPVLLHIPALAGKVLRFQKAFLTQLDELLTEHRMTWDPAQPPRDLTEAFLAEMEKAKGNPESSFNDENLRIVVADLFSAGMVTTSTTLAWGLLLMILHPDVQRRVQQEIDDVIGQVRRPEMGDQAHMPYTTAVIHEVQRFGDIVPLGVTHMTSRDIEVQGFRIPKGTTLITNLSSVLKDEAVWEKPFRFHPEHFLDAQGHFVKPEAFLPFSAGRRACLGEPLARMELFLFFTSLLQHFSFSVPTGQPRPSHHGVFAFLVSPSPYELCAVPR
A short description of series [4]: In vitro metabolic stability in liver microsomes. The class given is in vitro ADME, mouse.
The nature of series [5]: In vitro metabolic stability in liver microsomes. Type of series: in vitro ADME, rat.
For a further series, the target named is T5, CYP3A4 (Homo sapiens, UniProt P08684).
T5 construct: Human liver microsomes (0.25 mg/mL); from tissue; host or cells: human liver microsomes
T5 sequence (P08684 whole entry): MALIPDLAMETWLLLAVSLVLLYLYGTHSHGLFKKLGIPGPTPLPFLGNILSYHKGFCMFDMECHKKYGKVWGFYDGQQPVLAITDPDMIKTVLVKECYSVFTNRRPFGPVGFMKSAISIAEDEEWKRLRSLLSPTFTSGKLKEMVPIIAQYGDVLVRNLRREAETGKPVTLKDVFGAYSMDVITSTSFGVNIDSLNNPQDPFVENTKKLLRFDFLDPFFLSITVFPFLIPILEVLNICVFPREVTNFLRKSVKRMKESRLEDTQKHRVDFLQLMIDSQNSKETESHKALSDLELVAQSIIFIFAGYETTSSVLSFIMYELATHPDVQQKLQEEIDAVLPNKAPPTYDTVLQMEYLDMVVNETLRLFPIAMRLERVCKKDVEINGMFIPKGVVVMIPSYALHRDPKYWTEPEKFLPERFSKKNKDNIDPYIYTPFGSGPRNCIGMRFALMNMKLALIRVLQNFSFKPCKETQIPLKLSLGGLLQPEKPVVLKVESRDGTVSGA
Nature of the series: Inhibition of CYP enzymes activity, human liver microsomes. The class given is in vitro ADME. The note with it: human liver microsomes 0.25 mg/mL, 10 μM, midazolam substrate.

Another series has as its system SK2. The note with it: known compounds, Figure 1; cited from earlier work.
[6] abbreviates: % remaining after 30 min, NADPH.

The structures appear in SMILES notation.

Sequence of CYP2C9 (P11712 whole entry): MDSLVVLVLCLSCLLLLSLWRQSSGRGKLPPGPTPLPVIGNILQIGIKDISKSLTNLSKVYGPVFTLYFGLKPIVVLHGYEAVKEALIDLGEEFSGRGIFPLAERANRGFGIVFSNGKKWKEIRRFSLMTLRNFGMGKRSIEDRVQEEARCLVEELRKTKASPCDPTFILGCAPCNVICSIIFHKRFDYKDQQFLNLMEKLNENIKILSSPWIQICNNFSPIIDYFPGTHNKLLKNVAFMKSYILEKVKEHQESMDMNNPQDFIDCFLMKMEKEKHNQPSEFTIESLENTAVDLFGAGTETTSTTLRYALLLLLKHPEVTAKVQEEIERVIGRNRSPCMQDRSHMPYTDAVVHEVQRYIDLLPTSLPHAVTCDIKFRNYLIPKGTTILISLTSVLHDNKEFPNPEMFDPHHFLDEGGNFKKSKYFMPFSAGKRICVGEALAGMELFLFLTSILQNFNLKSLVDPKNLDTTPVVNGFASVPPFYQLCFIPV
Sequence of CYP2C19 (P33261 whole entry): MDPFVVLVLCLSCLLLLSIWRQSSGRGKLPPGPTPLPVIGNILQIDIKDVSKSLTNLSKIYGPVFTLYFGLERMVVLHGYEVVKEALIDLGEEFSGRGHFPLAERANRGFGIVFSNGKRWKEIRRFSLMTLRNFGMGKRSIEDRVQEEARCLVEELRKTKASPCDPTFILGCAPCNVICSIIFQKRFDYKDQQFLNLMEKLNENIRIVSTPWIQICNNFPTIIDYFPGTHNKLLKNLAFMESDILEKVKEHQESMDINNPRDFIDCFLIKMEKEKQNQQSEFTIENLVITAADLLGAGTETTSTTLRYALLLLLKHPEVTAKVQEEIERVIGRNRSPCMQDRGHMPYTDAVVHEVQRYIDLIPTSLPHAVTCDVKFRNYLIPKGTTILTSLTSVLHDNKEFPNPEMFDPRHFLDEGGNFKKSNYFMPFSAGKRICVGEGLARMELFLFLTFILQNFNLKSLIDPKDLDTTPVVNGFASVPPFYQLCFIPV
T3 sequence (P67775 whole entry): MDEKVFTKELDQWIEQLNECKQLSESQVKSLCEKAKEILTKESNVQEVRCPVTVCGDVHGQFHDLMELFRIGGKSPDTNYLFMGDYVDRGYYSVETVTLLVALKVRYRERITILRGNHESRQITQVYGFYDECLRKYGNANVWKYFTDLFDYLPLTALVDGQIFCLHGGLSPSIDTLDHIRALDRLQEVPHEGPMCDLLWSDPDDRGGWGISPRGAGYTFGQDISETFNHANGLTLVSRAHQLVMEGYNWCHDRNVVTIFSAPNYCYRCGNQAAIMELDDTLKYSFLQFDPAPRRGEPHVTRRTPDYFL
T2 sequence (Q9NRA0 whole entry): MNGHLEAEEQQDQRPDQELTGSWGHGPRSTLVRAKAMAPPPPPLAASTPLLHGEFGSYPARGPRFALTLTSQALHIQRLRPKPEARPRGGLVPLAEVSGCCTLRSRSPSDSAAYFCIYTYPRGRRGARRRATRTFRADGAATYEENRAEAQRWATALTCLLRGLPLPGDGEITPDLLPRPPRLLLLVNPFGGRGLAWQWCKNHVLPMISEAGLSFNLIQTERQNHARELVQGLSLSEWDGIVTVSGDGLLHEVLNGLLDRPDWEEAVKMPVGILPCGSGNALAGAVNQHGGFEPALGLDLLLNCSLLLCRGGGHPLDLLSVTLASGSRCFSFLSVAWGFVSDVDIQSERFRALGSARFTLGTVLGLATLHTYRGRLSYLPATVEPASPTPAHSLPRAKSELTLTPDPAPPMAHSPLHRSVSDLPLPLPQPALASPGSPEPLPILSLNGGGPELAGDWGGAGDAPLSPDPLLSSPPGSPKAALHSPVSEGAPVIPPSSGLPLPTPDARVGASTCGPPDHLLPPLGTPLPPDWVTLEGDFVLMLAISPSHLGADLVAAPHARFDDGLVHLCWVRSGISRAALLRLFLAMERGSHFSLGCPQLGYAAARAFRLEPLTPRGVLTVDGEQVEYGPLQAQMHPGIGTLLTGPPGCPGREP
Description for CYP1A2: (§3) Afterward, to terminate the reaction, an acetonitrile solution containing an internal standard (terfenadine) was added, centrifuged for 5 min (14,000 rpm, 4 °C), and the supernatant was injected into the LC-MS/MS system. By simultaneously analyzing metabolites, the ability of the six compounds to inhibit drug metabolism enzymes was evaluated.
(§4) Metabolites of each CYP coenzyme indicator drug generated through the above reaction were analyzed using the Shimadzu Nexera XR system and TSQ vantage (Thermo). The HPLC column was a Kinetex C18 column (2.1 × 100 mm^2, 2.6 μm particle size; Phenomenex, Torrance, CA, USA), and the mobile phase was distilled water (A) containing 0.1% formic acid and acetonitrile (B) containing 0.1% formic acid. […] The generated metabolites were quantified using MRM (Multiple Reaction Monitoring) quantification modes, and data were analyzed using Xcalibur (version 1.6.1).
Description for CYP2C19: (§5) By simultaneously analyzing metabolites, the ability of the six compounds to inhibit drug metabolism enzymes was evaluated.
as §4
Description for CYP2C9: as §5, §4
Description for CYP2D6: as §3, §4
Description for CYP3A4: as §5, §4

`CCCCCCCOc1ccc(CCN2CCC(O)CC2)cc1` [Compound 3, 1-(4-(Heptyloxy)phenethyl)piperidin-4-ol]: the “cytotoxic effect (cell viability)” value with HT29 cells [1] (HT29, 20 and 40 µM, 24 h, Figure 2A) was “more cytotoxic than RB005 and 5-FU”; with HCT116 cells (HCT116, 20 and 40 µM, 24 h, Figure 2B) it was “only 40 µM concentration of compounds 3, 5 and 9 shows significant cytotoxic effect”. Further, on SK1 enzyme, the “SK1/2 inhibitory effect compared to RB005 (SK1)” value was “three times higher”. Also, the “SK1/2 inhibitory effect compared to RB005 (SK2)” value at SK2 enzyme is on record as “three times higher”.
Consider `CC1=C(CN2CC(C(=O)O)C2)CCc2cc(OCCCCc3ccccc3)ccc21` [Compound W-061], for which the “Binding affinity, S1PR4” value with S1PR4 is given as 65.4. For the same compound, in the series with S1PR5, the “Binding affinity, S1PR5” value was 10.5. Moreover, the “Binding affinity, S1PR1” value in the series on S1PR1 is reported as 4.11. The “Binding affinity, S1PR3” value with S1PR3 is 1710. In the series with S1PR2, the “Binding affinity, S1PR2” value is listed as over 43800.
As a reminder, the IC50 is the point on the concentration scale where inhibition reaches its midpoint. The compound `CCCCCCCCc1ccc(CCC(N)(CO)CO)cc1` [FTY720] had a PP2A activity increase at PP2A in HCT116 cells of 1.65 fold. The “CYP2C9 activity (% of control activity)” value on CYP2C9 is reported as 96.8%. In series [2] (% remaining after 30 min, 0.5 mg/mL microsomes, NADPH), the “liver microsomal stability, Human (%)” value is reported as 90.5%. Further, the “liver microsomal stability (in words)” value in series [2] (human), in series [4] (mouse) and in series [5] (rat) was “stable” in each case. Moreover, the “apoptosis (annexin V assay)” value with HT29 cells [3] was “increased apoptosis”. Besides, on CYP2C19, the “CYP2C19 activity (% of control activity)” value is 86.8%. In addition, the IC50 was 5 to 12.5 µM in the series on SK1; 4.18 µM with HT29 cells [1] (Homo sapiens, HT-29, HT29, 48 h treatment, 2.5–40 µM, read-out: relative IC50 (cell viability)); 4.19 µM with HCT116 cells (Homo sapiens, HCT-116, HCT116, 48 h treatment, 2.5–40 µM, read-out: relative IC50 (cell viability)); 5 to 12.5 µM in the series on SK2. The “CYP1A2 activity (% of control activity)” value at CYP1A2 is 86.5%. At CYP2D6, the “CYP2D6 activity (% of control activity)” value amounted to 92.0%. Besides, in series [4] (setting [6]), the “liver microsomal stability, Mouse (%)” value came to 89.9%. Besides, the “liver microsomal stability, Rat (%)” value in series [5] (setting [6]) is listed as 77.0%. At CYP3A4, the “CYP3A4 activity (% of control activity)” value was over 100%.
